Drawing on PubChem BioAssay (NCI), this text covers TGI and GI50 for nine compounds.

Test in all cases: NCI tumour cell line growth inhibition, 48 h
Test [1] concerns COLO 205 colon.
The subject of test [2] is EKVX NSCLC.
Test [3] has as its system HOP-62 NSCLC.
Test [4] concerns HOP-92 NSCLC.
Test [5] relates to MOLT-4 leukemia.
Test [6] concerns OVCAR-4 ovarian.
Test [7] concerns OVCAR-8 ovarian.
In test [8] the test system is RPMI-8226 leukemia.
The test system of test [9] is SF-295 CNS.
For test [10], the system named is SN12C renal.

Values joined by “and” are separate entries in the source; they are usually repeats but may differ in a detail not shown here. Identical values can stand only once.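 Step 1: Grow cells in 96-well plates. Step 2: Expose to compound for 48 hours at 5 concentrations. Step 3: Interpolate endpoints linearly; if unreached, use highest concentration. Abbreviation: GI50, concentration required for 50% inhibition of growth. TGI marks complete inhibition of growth.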

As for `Clc1nc(-c2ccccc2)nc(Cl)c1Cl`, the TGI in test [1] is 23 µM; in [2], 31.5 µM; in [3], 32.3 µM; in test [4] it was 30.3 µM; in test [5], 15 µM; in test [6] it was 38.9 µM. Further, the TGI was 41.2 µM in test [7], 28.1 µM in test [8], 31.5 µM in test [9] and 31.4 µM in [10].
Consider `CCC1(N)C(=O)OCc2c1cc1n(c2=O)Cc2cc3ccccc3nc2-1` (stereo not given), for which the GI50 was 16.7 µM in test [1]; 20.7 µM in [2]; 4.77 µM in test [3]; 28.4 µM in test [4]; 1.83 µM in test [5]; 38.2 µM in [6]. Also, the GI50 was 12 µM in test [7], 3.66 µM in test [8], 3.45 µM in test [9] and 6.27 µM in test [10]. Also, the TGI in test [1] was more than 100 µM; in test [2], more than 100 µM; in test [3], more than 100 µM; in test [4] it was > 100 µM and 99 µM; in test [5] it was more than 41.7 µM; in [6] it was more than 100 µM. In addition, the TGI in [7] is more than 72.4 µM; in test [8], 81.5 µM and > 100 µM; in test [9], 50.2 µM and > 100 µM; in [10], more than 100 µM.
For `CCOc1ccc(N=Cc2ccc3ccccc3n2)cc1`, the TGI in [1], in test [2], in test [3], in [4], in test [5] and in test [6] was more than 100 µM each time. The TGI in test [7], in test [8], in [9] and in test [10] was more than 100 µM each time.
As for `CC(C)=CCc1c(O)c(C(=O)CC(C)C)c(O)c2c(-c3ccccc3)cc(=O)oc12`, the GI50 in test [1] is 9.75 µM; in test [2] it was 11.5 µM; in test [3], 15.4 µM; in test [4], 1.04 µM; in [5], 10.3 µM; in test [6], 9.98 µM. Further, the GI50 is 8.98 µM in [7], 2.68 µM in [8], 10 µM in [9] and 6.07 µM in [10]. The TGI in [1] is 19 µM; in [2], more than 50 µM; in test [3], more than 50 µM; in test [4], 4.84 µM; in test [5], more than 50 µM; in [6] it was 35.6 µM. The TGI in test [7] was more than 50 µM; in [8], 16.6 µM; in [9] it was 43.5 µM; in test [10] it was more than 50 µM.
Take `Cc1ccc2c(c1)-c1oc(=O)c(-c3cc4ccccc4oc3=O)cc1C(O)O2` (stereo not given): the GI50 in test [1] is 18.7 µM; in [2], 11.8 µM; in test [3], 22.9 µM; in [4], 17.3 µM; in test [5], 27.8 µM; in test [6], 36.3 µM. Besides, the GI50 in [7] is 19.9 µM; in test [8], 35.1 µM; in [9], 16.3 µM; in [10] it was 19.7 µM. Also, the TGI in [1] is 41.7 µM; in test [2], 25.7 µM; in test [3], 41.4 µM; in test [4] it was 40.5 µM; in [5], 74.4 µM; in test [6], more than 100 µM. For the same compound, the TGI in test [7] was 62.5 µM; in [8], more than 100 µM; in test [9] it was 38.2 µM; in test [10], 45 µM.
`O=C(Nc1ccc(N2CCNCC2)cn1)c1[nH]ncc1Nc1ncnc2sccc12`: the GI50 in test [1] was 1.72 µM; in test [2] it was 2.91 µM; in test [3] it was 2.99 µM; in test [4] it was 1.76 µM; in test [5] it was 1.99 µM; in test [6], 1.69 µM. Also, the GI50 in [7] is 1.96 µM; in [8], 2.32 µM; in test [9], 11.9 µM; in test [10] it was 4.27 µM. In addition, the TGI in test [1] was found to be 3.88 µM; in test [2], 13.5 µM; in test [3] it was 14.7 µM; in [4], 5.65 µM; in test [5], 7.64 µM; in [6], 3.63 µM. Further, the TGI in test [7] was found to be 4.02 µM; in test [8], 6.71 µM; in test [9] it was 28.9 µM; in test [10] it was 18.8 µM.
Take `CCCCCN(CCCCC)C(=O)[C@H](CCC(=O)OCc1ccccc1)NC(=O)c1cc2ccccc2[nH]1`: the TGI in [1], in test [2], in [3], in [4], in [5] and in [6] was more than 100 µM each time. Besides, the TGI in [7] was more than 100 µM; in [8], 7.74 µM; in [9], more than 100 µM; in [10], more than 100 µM.
In the case of `CCCCCCC/C=C1\CCC(CN(C)C)C1=O` (stereo not given), the TGI in test [1] worked out at 25.5 µM; in test [2], 22.8 µM; in test [3], 32.3 µM; in test [4], 33.7 µM; in [5], 7 µM; in [6], 33.6 µM. Besides, the TGI is 18 µM in test [7], 5.26 µM in test [8], 30.1 µM in [9] and 17.5 µM in test [10].
As to `CCCC(=O)Nc1c(I)cc(I)c(CC(CC)C(=O)O)c1I` (stereo not given), the GI50 in test [1], in [2], in test [3], in [4], in test [5] and in test [6] was more than 100 µM in each case. Moreover, the GI50 in [7], in test [8], in [9] and in [10] was more than 100 µM each time. Also, the TGI in test [1], in [2], in [3], in test [4], in [5] and in test [6] was more than 100 µM throughout. In addition, the TGI in [7], in test [8], in test [9] and in test [10] was more than 100 µM each time.
